The values that follow come from paper doi:10.1101/2020.07.01.182642v1 (biorxiv, 2020).

Test [1] concerns the target CLK1 (full-length) (Homo sapiens, UniProt P49759). Put plainly: cell-based. Also on record: species or system HEK293T.
The next test addresses CAMK2B (Homo sapiens, UniProt Q13554). The following applies: binder.
In a further test the target is ACVR2B (Homo sapiens, UniProt Q13705). Particulars: binder.
Another test deals with GRK1 (Homo sapiens, UniProt Q15835). Particulars: binder.
A further test addresses BMPR1A (Homo sapiens, UniProt P36894). The following applies: binder.
The target of another test is AKT3 (Homo sapiens, UniProt Q9Y243). Particulars: binder.
For the next test, the target named is PKN2 (Homo sapiens, UniProt Q16513). Particulars: binder.
For the next test, the target named is TYRO3 (Homo sapiens, UniProt Q06418). The following applies: binder.
The target in the next test is MAP3K5 (Homo sapiens, UniProt Q99683). Particulars: binder.
For the next test, the target named is ACVR1B (Homo sapiens, UniProt P36896). The following applies: binder.
In a further test the target is MAP2K6 (Homo sapiens, UniProt P52564). The following applies: binder.
The target of the next test is VRK1 (Homo sapiens, UniProt Q99986). Particulars: binder.
Another test concerns the target DCLK1 (Homo sapiens, UniProt O15075). Particulars: binder.
Test [2] has as its target CLK1 (full-length) (Homo sapiens, UniProt P49759, V324A). As to the kind of experiment: cell-based. Also on record: species or system HEK293T.
The next test has as its target CLK1 (H148-I484) (Homo sapiens, UniProt P49759). Particulars: binder.
The target in another test is CDK4 (Homo sapiens, UniProt P11802). Particulars: binder.
The next test deals with TRIB1 (Homo sapiens, UniProt Q96RU8). Particulars: binder.
A further test deals with SIK2 (Homo sapiens, UniProt Q9H0K1). Particulars: binder.
In the next test the target is IKBKB (Homo sapiens, UniProt O14920). The following applies: binder.
The next test deals with CDC42BPB (Homo sapiens, UniProt Q9Y5S2). Particulars: binder.
In another test the target is FGR (Homo sapiens, UniProt P09769). The following applies: binder.
The target in the next test is PDPK1 (Homo sapiens, UniProt O15530). Particulars: binder.
A further test addresses NEK1 (Homo sapiens, UniProt Q96PY6). Particulars: binder.
The next test concerns the target ADRBK1 (Homo sapiens, UniProt P25098). Particulars: binder.
In another test the target is MAP2K1 (Homo sapiens, UniProt Q02750). Particulars: binder.
A further test concerns the target CDK17 (Homo sapiens, UniProt Q00537). The following applies: binder.
A further test deals with PRKG1 (Homo sapiens, UniProt Q13976). The following applies: binder.
The next test addresses SRPK1 (Homo sapiens, UniProt Q96SB4). The following applies: binder.
A further test has as its target DDR1 (Homo sapiens, UniProt Q08345). The following applies: binder.
For another test, the target named is SRPK2 (Homo sapiens, UniProt P78362). The following applies: binder.

Each structure is given as a SMILES string.

Chain of CLK1 (H148-I484) (P49759 148-484): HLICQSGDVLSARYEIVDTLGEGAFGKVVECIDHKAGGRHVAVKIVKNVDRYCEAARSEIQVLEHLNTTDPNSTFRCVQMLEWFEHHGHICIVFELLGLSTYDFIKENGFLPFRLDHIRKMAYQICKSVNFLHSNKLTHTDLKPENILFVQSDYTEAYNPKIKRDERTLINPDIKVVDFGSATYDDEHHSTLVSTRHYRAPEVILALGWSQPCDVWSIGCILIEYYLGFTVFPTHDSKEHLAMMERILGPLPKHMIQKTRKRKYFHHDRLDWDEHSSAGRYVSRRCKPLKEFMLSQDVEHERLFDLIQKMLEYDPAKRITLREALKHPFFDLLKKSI
Chain of MAP2K1 (Q02750 whole entry): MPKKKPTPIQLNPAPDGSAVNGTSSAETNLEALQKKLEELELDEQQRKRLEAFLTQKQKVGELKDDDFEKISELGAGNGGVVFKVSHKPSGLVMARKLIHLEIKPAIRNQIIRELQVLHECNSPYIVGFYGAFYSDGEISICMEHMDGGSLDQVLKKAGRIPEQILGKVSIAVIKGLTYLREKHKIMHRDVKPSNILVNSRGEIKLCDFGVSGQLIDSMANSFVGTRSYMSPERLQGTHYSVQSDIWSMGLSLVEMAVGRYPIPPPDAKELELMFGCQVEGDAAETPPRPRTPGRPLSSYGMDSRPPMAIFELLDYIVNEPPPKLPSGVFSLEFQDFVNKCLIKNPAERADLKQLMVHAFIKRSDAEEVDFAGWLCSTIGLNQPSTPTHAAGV
Chain of SRPK2 (P78362 whole entry): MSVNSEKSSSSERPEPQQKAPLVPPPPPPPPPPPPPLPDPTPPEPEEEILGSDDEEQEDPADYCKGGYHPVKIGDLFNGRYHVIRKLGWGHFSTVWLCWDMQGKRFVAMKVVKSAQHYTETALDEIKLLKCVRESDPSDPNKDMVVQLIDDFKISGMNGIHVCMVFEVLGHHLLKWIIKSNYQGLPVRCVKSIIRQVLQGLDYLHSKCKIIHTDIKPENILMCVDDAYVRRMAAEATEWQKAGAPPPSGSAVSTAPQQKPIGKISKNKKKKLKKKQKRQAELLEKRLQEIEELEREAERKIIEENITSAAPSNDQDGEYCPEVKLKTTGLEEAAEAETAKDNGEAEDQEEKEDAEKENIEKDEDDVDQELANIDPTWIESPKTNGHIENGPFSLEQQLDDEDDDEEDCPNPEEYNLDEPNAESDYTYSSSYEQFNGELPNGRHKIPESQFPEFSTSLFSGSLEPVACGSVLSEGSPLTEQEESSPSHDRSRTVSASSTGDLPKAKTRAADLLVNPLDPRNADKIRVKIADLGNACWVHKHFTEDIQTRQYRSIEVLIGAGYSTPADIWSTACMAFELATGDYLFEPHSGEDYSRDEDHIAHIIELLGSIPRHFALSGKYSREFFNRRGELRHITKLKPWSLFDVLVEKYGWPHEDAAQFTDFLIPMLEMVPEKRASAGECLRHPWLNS
Chain of PRKG1 (Q13976 whole entry): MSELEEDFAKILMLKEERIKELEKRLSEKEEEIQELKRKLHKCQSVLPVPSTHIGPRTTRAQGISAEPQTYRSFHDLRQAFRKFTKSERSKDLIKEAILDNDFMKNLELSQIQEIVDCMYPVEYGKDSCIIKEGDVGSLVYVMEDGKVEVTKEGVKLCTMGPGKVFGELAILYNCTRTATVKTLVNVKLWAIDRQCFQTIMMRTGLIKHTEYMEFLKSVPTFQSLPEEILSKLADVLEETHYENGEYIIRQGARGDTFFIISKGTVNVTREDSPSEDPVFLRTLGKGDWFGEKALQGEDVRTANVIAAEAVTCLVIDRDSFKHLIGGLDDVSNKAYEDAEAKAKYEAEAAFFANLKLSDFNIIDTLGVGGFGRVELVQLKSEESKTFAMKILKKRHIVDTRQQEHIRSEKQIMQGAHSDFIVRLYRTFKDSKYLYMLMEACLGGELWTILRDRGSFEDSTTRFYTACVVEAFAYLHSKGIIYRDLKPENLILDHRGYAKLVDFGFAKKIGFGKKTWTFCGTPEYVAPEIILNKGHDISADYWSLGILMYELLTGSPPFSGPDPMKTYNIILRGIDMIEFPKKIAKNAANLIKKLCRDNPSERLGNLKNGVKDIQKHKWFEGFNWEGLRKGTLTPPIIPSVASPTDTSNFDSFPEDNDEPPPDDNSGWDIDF
Chain of CAMK2B (Q13554 whole entry): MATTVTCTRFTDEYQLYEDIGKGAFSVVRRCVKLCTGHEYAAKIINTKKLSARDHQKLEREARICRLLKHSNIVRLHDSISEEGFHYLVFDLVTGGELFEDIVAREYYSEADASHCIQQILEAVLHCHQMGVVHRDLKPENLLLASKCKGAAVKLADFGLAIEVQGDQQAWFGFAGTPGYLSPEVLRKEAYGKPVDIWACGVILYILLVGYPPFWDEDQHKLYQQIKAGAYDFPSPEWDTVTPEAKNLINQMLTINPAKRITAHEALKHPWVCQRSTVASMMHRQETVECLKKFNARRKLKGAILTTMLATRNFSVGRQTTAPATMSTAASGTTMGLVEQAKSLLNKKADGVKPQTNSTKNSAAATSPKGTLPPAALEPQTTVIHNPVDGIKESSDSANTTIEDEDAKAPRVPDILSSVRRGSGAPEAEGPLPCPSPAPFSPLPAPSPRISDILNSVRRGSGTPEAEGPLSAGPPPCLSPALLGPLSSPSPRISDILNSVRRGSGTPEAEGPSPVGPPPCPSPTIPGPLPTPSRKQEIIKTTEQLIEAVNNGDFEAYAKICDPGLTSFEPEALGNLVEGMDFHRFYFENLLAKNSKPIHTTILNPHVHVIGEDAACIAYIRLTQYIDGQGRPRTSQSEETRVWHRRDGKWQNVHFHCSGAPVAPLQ
Chain of CDK17 (Q00537 whole entry): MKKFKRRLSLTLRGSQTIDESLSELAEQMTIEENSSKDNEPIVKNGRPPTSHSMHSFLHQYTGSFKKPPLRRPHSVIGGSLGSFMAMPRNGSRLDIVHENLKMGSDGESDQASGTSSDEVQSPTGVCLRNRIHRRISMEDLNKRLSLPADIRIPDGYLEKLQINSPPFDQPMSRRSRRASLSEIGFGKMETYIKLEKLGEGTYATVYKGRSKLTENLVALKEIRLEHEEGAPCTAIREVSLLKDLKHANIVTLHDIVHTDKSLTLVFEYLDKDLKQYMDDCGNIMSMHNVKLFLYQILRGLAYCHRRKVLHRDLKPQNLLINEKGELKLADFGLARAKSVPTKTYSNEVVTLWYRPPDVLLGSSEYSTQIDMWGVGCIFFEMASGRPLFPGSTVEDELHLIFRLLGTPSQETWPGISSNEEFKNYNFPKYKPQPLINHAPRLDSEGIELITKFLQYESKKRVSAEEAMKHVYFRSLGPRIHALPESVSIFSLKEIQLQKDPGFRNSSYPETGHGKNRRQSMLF
Chain of PKN2 (Q16513 whole entry): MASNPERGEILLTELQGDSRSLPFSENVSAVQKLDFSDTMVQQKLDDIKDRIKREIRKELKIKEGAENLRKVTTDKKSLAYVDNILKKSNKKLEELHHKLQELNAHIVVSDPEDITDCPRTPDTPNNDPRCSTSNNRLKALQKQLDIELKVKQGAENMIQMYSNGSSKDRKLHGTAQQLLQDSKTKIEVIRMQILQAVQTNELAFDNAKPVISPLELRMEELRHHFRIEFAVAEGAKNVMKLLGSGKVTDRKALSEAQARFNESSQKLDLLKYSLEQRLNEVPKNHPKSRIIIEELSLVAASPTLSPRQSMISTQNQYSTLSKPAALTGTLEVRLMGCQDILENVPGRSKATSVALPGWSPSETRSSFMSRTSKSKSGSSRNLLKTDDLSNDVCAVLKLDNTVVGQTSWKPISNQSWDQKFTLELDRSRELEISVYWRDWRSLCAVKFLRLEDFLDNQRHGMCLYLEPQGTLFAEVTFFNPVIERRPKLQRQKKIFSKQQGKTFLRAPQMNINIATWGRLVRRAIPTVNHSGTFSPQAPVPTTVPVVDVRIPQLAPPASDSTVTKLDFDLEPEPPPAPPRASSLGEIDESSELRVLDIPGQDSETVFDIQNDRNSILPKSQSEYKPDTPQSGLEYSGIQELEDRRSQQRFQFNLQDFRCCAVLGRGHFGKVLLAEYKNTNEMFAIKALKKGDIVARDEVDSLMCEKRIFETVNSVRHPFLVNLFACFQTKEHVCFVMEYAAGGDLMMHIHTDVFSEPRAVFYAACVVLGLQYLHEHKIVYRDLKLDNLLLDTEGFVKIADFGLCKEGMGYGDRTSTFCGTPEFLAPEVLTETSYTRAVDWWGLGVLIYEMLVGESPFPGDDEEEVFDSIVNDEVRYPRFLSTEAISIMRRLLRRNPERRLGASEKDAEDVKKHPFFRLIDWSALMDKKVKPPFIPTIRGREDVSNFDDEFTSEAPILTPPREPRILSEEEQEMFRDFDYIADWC
Chain of MAP2K6 (P52564 whole entry): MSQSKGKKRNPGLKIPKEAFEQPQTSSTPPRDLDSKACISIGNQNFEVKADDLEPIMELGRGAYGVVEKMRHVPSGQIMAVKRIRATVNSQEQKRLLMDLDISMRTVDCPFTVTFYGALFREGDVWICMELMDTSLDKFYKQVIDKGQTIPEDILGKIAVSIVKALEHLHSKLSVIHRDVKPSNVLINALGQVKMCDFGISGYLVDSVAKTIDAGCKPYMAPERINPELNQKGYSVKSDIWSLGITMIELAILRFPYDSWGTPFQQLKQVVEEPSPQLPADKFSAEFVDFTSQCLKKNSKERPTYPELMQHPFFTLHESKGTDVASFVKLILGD
Chain of VRK1 (Q99986 whole entry): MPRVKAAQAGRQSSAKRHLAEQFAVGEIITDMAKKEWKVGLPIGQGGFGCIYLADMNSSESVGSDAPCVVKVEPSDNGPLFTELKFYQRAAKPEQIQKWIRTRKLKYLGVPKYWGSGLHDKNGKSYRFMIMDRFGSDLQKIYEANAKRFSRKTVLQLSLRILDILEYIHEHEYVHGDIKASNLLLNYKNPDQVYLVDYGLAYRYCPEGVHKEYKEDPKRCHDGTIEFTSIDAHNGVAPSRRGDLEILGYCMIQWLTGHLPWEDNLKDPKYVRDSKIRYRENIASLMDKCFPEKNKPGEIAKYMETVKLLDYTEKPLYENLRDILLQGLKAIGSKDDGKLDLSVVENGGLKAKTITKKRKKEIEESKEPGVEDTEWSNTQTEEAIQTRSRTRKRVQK

Regarding `CC(=O)c1cccc(-c2cnc3ccc(NCC4CC4)nn23)c1` [compound 1, K00135], the Ki at CLK1 (full-length) [1] was found to be 229 ± 100 nM; on CLK1 (full-length) [2] it was 512 ± 100 nM. Besides, the “ΔTm inhibitor 1” value at CAMK2B came out at 0.2 °C; on ACVR2B, 7.4 °C; at GRK1 it was 1.1 °C; on BMPR1A, 10.9 °C; on AKT3 it was 0.4 °C; at PKN2, 3.7 °C. Moreover, the “ΔTm inhibitor 1” value on TYRO3 was found to be 0.4 °C; at MAP3K5, 2.2 °C; on ACVR1B it was 9.1 °C; at MAP2K6, 1.1 °C; at VRK1 it was 0.7 °C; on DCLK1, 0.6 °C. Also, on CLK1 (H148-I484), the “ΔTm wild type CLK1” value worked out at 7.2 °C.

On to `CCN1/C(=C/C(C)=O)Sc2ccc(OC)cc21` [compound 2, TG003], for which the “ΔTm inhibitor 2” value on CAMK2B is 0.3 °C; at CDK4 it was -0.6 °C; at TRIB1, 0.2 °C; at SIK2, -0.2 °C; on IKBKB, 0.1 °C; on GRK1 it was 0.4 °C. For the same compound, the “ΔTm inhibitor 2” value at CDC42BPB is 0.3 °C; at AKT3 it was 0.0 °C; at PKN2, -0.5 °C; at FGR, -0.2 °C; on TYRO3, 0.1 °C; on PDPK1, 0.2 °C. For the same compound, the “ΔTm inhibitor 2” value at MAP3K5 is 0.4 °C; at NEK1 it was -0.3 °C; at ADRBK1 it was 0.1 °C; on MAP2K1, -0.1 °C; at CDK17, 0.0 °C; on PRKG1 it was 1.6 °C. The “ΔTm inhibitor 2” value at MAP2K6 was 0.0 °C; at VRK1, 1.1 °C; on DCLK1, -0.4 °C; at SRPK1, 0.0 °C; at DDR1 it was 0.4 °C; at SRPK2, -0.2 °C.

For the compound `Nc1nccc(-c2ccc3noc(-c4ccc(Cl)cc4)c3c2)n1` [compound 4, K00972], the “ΔTm inhibitor 4” value worked out at 1.5 °C on CDK4; 0.1 °C at TRIB1; 0.0 °C at ACVR2B; 0.4 °C on SIK2; 1.5 °C on IKBKB; 0.2 °C on CDC42BPB. Further, the “ΔTm inhibitor 4” value was found to be 0.3 °C at PDPK1; 0.6 °C at NEK1; 1.1 °C on ACVR1B; 0.2 °C at MAP2K1; 0.4 °C on CDK17; 0.5 °C at PRKG1. Further, the “ΔTm inhibitor 4” value at SRPK2 amounted to 0.4 °C. In addition, on CLK1 (H148-I484), the “ΔTm wild type CLK1” value came to 5.7 °C.

For orientation: Ki means the equilibrium dissociation constant of an inhibitor or competing ligand from its target.
